Data as given in PMC7140498, “Predicting liver cytosol stability of small molecules” (Journal of Cheminformatics, 2020).
Where two headings read alike, the source gives them in different places.

Tests used:
[1] = Metabolic stability assay (substrate depletion) in human liver cytosol fractions; details: both, human, cytosol, control compounds, 17 plates
Experimental: (§1) Our assay (384-well format) consisted of two parts; a robotic system for incubation and sample clean up and an integrated LC/MS method to calculate the percent remaining of parent compound. Briefly, each reaction mixture (110 μL) consisted of a test compound (1 μM) and either human or mouse cytosol fractions (2 mg/mL) in phosphate buffer (100 mM) at pH 7.4. Samples were incubated in 384-well plates at 37 °C for 0, 5, 10, 15, 30 and 60 min. Sample analysis and t1/2 calculations were performed using a previously described method [15]. […] A set of control compounds for low and high cytosolic stability were routinely run in each plate.

[2] = Metabolic stability assay (substrate depletion) in mouse liver cytosol fractions; details: for half-life at 1 μM: male, CD-1, mouse; for t1/2 [min] (Left): left compound
Experimental: as §1

[3] = human, cytosol
Experimental: as §1

[4] = set-up: method as in PMID 20421447; details: development discontinued in 2008; cited from earlier work
[5] = set-up: method as in PMID 21385103; details: clinical trials terminated; cited from earlier work
[6] = external validation, sheet Mouse
[7] = liver cytosol fractions, pH 7.4, t1/2 [min] (Right), external validation, sheet Mouse, right compound

Row | SMILES | t1/2 [min] (Left) [2, 6] | half-life at 1 μM [2, 7] | further results
1 | Cc1cc(=O)n(-c2ccccc2)n1C [Antipyrine, reference compound] | – | – | half-life at 1 μM ([1]; pH 7.4, t1/2 (mean ± SD) (Human cytosol), 1 μM, 2 mg/mL cytosol, pH 7.4, 37 °C): > 2 h; half-life at 1 μM ([1]; pH 7.4, t1/2 category (Human cytosol)): > 0.5 h; half-life at 1 μM ([2]; cytosol, pH 7.4, t1/2 (mean ± SD) (Mouse cytosol), control compounds, 17 plates, 1 μM, 2 mg/mL cytosol, pH 7.4, 37 °C): > 2 h; half-life at 1 μM ([2]; cytosol, pH 7.4, t1/2 category (Mouse cytosol), control compounds, 17 plates): > 0.5 h
2 | O=c1cc(N2CCOCC2)oc2c(-c3cccc(F)c3)nccc12 [O=c1cc(N2CCOCC2)oc2c(-c3cccc(F)c3)nccc12] | – | – | t1/2 [min] (Left) [3]: > 120 min
3 | Cn1cc(-c2ccc3nnc(Sc4ccc5ncccc5c4)n3n2)cn1 [SGX523] | – | – | toxicity reported in development [4]: dose-limiting renal toxicity
4 | O=C(c1ccc(-c2ncc3cnc(-c4cccc(F)c4)cn23)cc1)N1CCc2cccnc21 | – | – | t1/2 [min] (Left) [3]: 17.3 min
5 | CC(C)n1nc(-c2cnc(N)nc2-c2ccccc2)ccc1=O [FK3453] | – | – | levels of parent compound in human plasma [5]: abnormally low levels
6 | CCN1c2cc(C(=O)Nc3ccc(Cl)cc3)ccc2C(=O)N2CCCCCC21 (centres unmarked) | 56.1 min | – | –
7 | OCC1(CN2CCCC2)CCN(Cc2ccc(Cl)c(F)c2)CC1 [OCC1(CN2CCCC2)CCN(Cc2ccc(Cl)c(F)c2)CC1] | – | 1.21 h | –
8 | CN1c2cc(C(=O)Nc3ccc(Cl)cc3)ccc2C(=O)N2CCCCCC21 (centres unmarked) | 63.37 min | – | –
9 | CN(C)c1nc2c(c(=O)[nH]1)CCN(Cc1ccc(Cl)c(F)c1)CC2 | – | > 2 h | –
10 | CCN1c2cc(C(=O)Nc3ccc(Cl)c(F)c3)ccc2C(=O)N2CCCCCC21 (centres unmarked) | – | 0.904 h | –
11 | O=c1[nH]c(N2CCOCC2)nc2c1CCN(Cc1ccc(Cl)c(F)c1)CC2 | – | 1.54 h | –
12 | O=C(Nc1ccc(-c2nnc3n2CCCC3)cc1)c1cc[nH]n1 [O=C(Nc1ccc(-c2nnc3n2CCCC3)cc1)c1cc[nH]n1] | – | > 2 h | –
13 | O=C(Nc1ccc(-c2nnc3n2CCCC3)cc1)c1ccc(Cl)cc1 | 117.12 min | – | –
14 | Cc1cccc(-c2noc([C@@H]3C[C@@H](O)CN3Cc3ccc(Cl)cc3)n2)c1 | 23.64 min | – | –
15 | COc1cccc(C(=O)NCC2CCCN(Cc3cc[nH]n3)C2)c1OC (centres unmarked) | – | > 2 h | –
16 | CN(C1CCOCC1)C1CCN(C(=O)c2cc[nH]n2)CC1 [CN(C1CCOCC1)C1CCN(C(=O)c2cc[nH]n2)CC1] | – | > 2 h | –
17 | COc1ccc(CN2C[C@H]3CN(Cc4ccc(Cl)cc4)CCN3C2=O)cc1 | 82.24 min | – | –
18 | O=C1[C@H]2CN(Cc3ccc(Cl)cc3)C[C@H]2C(=O)N1CCc1ccccc1 | 47.51 min | – | –
19 | CCOc1cc(=O)n2c(c1C(=O)Nc1ccc(Cl)c(F)c1)CCCC2 | – | 1.34 h | –
20 | OCC1(CN2CCCC2)CCN(Cc2ccc(Cl)cc2)CC1 [OCC1(CN2CCCC2)CCN(Cc2ccc(Cl)cc2)CC1] | 54.48 min | – | –
